The values that follow come from patent US9458120B2, “Phenoxypropanol derivative and pharmaceutical composition including the same” (KOREA INSTITUTE OF SCIENCE AND TECHNOLOGY, priority 2011, dated 2016).

One experiment concerns the target T1, TREK-1 channel (Rattus norvegicus, UniProt Q920B6).
T1 construct: expressed in transfected cells; host or cells: COS7 (Korean Cell Line Bank), transient transfection with Effectene
T1 sequence (Q920B6 1-426): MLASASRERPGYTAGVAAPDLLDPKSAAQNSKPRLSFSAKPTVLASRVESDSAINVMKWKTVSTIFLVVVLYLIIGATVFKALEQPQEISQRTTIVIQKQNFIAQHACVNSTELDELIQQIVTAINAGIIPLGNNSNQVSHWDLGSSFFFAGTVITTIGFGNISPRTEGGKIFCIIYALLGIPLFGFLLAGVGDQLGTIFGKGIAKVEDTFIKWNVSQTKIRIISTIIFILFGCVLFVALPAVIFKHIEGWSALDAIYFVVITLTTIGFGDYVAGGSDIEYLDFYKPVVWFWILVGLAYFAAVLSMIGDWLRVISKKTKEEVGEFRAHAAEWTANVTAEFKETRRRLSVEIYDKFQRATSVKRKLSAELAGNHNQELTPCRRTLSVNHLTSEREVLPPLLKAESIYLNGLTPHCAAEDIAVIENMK
In words: Assay for TREK channel inhibition activity (whole cell patch clamp recording, COS7 cell transfected with GFP-rTREK-1). The conditions noted are these: COS7 cells, GFP-rTREK-1, whole-cell patch clamp; for inhibition at 101 µM: COS-7, Table 3 (value ± spread), 101 μM [sic], read-out: block % at 101 μM. It counts as cell-based. The method, boiled down: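 Whole-cell patch clamp was run on COS7 cells 24 h after transfection with GFP-rTREK-1, held at −70 mV, using a 1 s ramp from −100 to +100 mV. Current was taken as the difference between +100 and −100 mV values. Block % = 100 − (current after/before blocker) × 100.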
On the technique in general: In patch-clamp work, channel activity is measured electrically.

Experiment [1] addresses α1G T-type calcium channel (Homo sapiens, UniProt O43497). In words: Assay for T-type calcium channel inhibition activity (FDSS6000 calcium imaging, KCl activation). It counts as cell-based. The conditions noted are these: 75 s pre-treatment then KCl 75 mM, HEK293 cells expressing α1G T-type calcium channel and Kir2.1. The protocol:
At 12-24 hours before the assay for T-type calcium channel activity, cells of HEK293 cell line (α1G cell line: KCTC 10519BP, GenBank, Korea Research Institute of Bioscience and Biotechnology) which stably express α1G T-type calcium channel and Kir2.1, were sub-cultured in a poly-L-lysine (0.05 mg/ml) treated 96-well plate with the density of 4×10^4 per a well using a 96-well cell dispenser (Titertek). On the day of assay, the 96-well plate to which the cells were attached were washed three times with a HEPES buffer solution (unit mM: 150 NaCl, 5 KCl, 1 MgCl2, 2 CaCl2, 10 HEPES, 10 glucose, pH 7.4) using a 96-well plate automatic washing device (Bio Tek), and then reacted with a HEPES buffer solution containing 5 μM fluo-3/AM and 0.001% (w/v) Pluronic F-127 at room temperature for 1 hour, to label with fluorescent dye, and then further washed twice with the HEPES buffer solution. Thereafter, at 10 minutes before the measurement using a FDSS6000 device, a washing with a HEPES buffer solution containing 10 mM CaCl2 was conducted once more, and the final volume was adjusted to 81 μl. Besides the above 96-well plate containing the cells, additional two 96-well drug plates were provided, in which the 96-well plates contained KCl (final concentration: 75 mM) for activating T-type calcium channel and a blocker drug, respectively.
Since most of cell-based HTS (High throughput screening) devices are equipped with a liquid application system for drug injection, but have no liquid sucking system, the blocker drug to be tested and KCl were respectively provided at the five-times higher concentration in 10 mM CaCl2 HEPES buffer solution at the amount of 27 μl, diluted five-times at the final cell plate volume of 135 μl, and then used in this test. In this Experimental Example, therefore, FDSS6000 (Hamamatsu Photonics) was used as an alternative to HTS device.
Specific FDSS6000 measurement conditions are as follows: After recording the reference value of 20 seconds, the change of intracellular calcium concentration which induced by pre-treatment of the drug (the prepared […]) for 75 seconds followed by administration of KCl was measured, in which the percentage (%) inhibition effect of the test drug was determined, through estimating the area of ratio value of 340/380 in the control without treatment of the test drug as 100%. As a reference drug, 10 μM of mibefradil was always used.
For accurate calcium-imagination, the light sources of 4 xenon lamps in FDSS6000 were radiated to make the cells exposed selectively to the excitation wavelength (340 nm and 380 nm) by computer-controlled filter wheel. Data was obtained at interval of each 1.23 second. The emitter fluorescence light inflow through a 515 nm long-pass filter was obtained as an average 340/380 ratio value for each well in the 96-wells by a cooled CCD camera and digital fluorescence analyzer in the device. All image data and analysis were obtained by using a FDSS6000-exclusive program provided by Hamamatsu Photonics, as described above.

The structures appear in SMILES notation.

Chain of α1G T-type calcium channel (O43497 whole entry): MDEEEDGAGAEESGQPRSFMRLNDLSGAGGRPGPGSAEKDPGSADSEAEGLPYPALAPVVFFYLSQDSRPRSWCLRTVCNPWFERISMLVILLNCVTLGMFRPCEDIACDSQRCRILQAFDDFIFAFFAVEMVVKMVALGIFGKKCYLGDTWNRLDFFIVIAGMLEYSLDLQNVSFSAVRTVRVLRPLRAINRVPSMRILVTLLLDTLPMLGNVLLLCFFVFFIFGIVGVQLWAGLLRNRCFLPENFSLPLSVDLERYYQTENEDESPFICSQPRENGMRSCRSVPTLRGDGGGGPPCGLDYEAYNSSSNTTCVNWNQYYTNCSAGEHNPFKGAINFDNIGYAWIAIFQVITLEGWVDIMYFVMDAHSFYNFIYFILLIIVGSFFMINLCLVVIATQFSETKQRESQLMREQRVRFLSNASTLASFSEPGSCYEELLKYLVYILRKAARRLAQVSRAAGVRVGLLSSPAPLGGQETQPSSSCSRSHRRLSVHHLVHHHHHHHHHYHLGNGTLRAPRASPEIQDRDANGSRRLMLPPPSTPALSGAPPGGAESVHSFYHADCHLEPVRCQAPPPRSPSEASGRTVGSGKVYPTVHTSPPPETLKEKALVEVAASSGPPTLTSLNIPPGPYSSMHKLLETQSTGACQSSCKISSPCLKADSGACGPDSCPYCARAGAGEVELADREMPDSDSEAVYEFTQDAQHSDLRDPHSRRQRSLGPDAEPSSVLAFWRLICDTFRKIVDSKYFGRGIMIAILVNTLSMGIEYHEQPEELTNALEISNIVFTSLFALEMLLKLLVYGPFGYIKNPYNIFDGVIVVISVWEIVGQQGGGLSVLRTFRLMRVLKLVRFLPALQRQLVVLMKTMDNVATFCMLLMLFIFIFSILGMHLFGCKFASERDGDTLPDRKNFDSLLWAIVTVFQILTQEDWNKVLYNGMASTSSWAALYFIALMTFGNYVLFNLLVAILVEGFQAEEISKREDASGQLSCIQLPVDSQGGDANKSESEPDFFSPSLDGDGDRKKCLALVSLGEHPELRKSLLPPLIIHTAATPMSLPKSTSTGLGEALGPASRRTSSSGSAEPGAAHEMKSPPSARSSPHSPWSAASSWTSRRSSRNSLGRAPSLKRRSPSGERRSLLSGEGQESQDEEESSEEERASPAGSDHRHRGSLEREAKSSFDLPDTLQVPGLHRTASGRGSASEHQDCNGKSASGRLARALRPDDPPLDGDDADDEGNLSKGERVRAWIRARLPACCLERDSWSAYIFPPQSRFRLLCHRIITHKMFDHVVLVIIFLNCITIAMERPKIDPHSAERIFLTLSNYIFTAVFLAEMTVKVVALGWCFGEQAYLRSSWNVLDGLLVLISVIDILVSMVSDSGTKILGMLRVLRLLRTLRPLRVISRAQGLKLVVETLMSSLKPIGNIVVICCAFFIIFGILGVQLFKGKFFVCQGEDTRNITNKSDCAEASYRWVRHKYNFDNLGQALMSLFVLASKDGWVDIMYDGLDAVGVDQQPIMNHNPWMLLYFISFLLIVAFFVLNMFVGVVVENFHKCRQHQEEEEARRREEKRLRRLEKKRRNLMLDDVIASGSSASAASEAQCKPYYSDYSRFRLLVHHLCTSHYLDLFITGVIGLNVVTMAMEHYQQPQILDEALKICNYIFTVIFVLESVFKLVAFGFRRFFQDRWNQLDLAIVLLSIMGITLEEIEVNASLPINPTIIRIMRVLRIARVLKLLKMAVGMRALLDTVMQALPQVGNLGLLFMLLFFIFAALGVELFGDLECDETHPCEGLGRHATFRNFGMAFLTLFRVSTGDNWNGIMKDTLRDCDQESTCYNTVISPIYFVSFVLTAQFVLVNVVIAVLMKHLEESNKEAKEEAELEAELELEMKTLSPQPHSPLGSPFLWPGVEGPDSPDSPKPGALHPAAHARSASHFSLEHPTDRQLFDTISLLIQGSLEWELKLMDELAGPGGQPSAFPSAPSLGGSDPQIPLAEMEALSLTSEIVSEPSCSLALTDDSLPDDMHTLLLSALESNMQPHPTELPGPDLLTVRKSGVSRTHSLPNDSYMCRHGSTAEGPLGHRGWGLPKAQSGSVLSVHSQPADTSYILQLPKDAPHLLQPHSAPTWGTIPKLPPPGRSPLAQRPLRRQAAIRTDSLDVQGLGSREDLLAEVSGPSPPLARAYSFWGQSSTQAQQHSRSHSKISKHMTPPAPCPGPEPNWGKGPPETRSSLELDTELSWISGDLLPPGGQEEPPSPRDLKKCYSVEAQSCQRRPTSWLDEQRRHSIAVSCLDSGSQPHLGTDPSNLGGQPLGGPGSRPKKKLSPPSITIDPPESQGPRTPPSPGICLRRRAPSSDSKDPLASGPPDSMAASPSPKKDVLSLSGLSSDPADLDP

As for `CC(C)Cc1cc(CNC(=O)CN2CCN(C[C@@H](O)COc3ccc(C(F)(F)F)cc3)CC2)nn1-c1ccccc1` [KKRE10210, (R)-2-(4-(2-Hydroxy-3-(4-(trifluoromethyl)phenoxy)propyl)piperazin-1-yl)-N-((5-isobutyl-1-phenyl-1H-pyrazol-3-yl)methyl)acetamide], at TREK-1 channel, the inhibition at 101 µM came to 77.5 ± 5.19%. Also, the “block % at 100 μM” value on TREK-1 channel (Table 2) is recorded as 91.23%; on TREK-1 channel (Table 3 (value ± spread)), 91.22 ± 1.77%. Besides, the inhibition in experiment [1] came to 67%.
Consider `CC(C)c1cc(CNC(=O)CN2CCN(C[C@@H](O)COc3ccc(C(F)(F)F)cc3)CC2)nn1-c1ccccc1` [KKRE10211, (R)-2-(4-(2-hydroxy-3-(4-(trifluoromethyl)phenoxy)propyl)piperazin-1-yl)-N-((5-isopropyl-1-phenyl-1H-pyrazol-3-yl)methyl)acetamide], for which, at TREK-1 channel, the inhibition at 101 µM was 55.3 ± 6.53%. In experiment [1], the inhibition was 79%.
Turning to `CC(C)Cc1cc(CNC(=O)CN2CCN(C[C@@H](O)COc3ccc(F)cc3)CC2)nn1-c1ccccc1` [KKRE10213, (R)-2-(4-(3-(4-Fluorophenoxy)-2-hydroxypropyl)piperazin-1-yl)-N-((5-isobutyl-1-phenyl-1H-pyrazol-3-yl)methyl)acetamide], the inhibition at 10 µM at TREK-1 channel (COS-7, Table 2, 10 μM, read-out: block % at 10 μM) was determined as 64.7%. Moreover, the inhibition in experiment [1] amounted to 77.4%.
Take `CC(C)Cc1cc(CNC(=O)CN2CCN(C[C@H](O)COc3ccc(F)cc3)CC2)nn1-c1ccccc1` [KKRE10214, (S)-2-(4-(3-(4-Fluorophenoxy)-2-hydroxypropyl)piperazin-1-yl)-N-((5-isobutyl-1-phenyl-1H-pyrazol-3-yl)methyl)acetamide]: the inhibition at 101 µM on TREK-1 channel is 37.5 ± 5.31%. In addition, the inhibition in experiment [1] was 77.5%.
For `CC(C)Cc1cc(CNC(=O)CN2CCN(C[C@H](O)COc3ccc(C(F)(F)F)cc3)CC2)nn1-c1ccccc1` [KKRE10215, (S)-2-(4-(2-Hydroxy-3-(4-(trifluoromethyl)phenoxy)propyl)piperazin-1-yl)-N-((5-isobutyl-1-phenyl-1H-pyrazol-3-yl)methyl)acetamide] the same measures were 82.1 ± 3.81% and 80.9%.
For `Cc1ccc(F)cc1-n1nc(CNC(=O)CN2CCN(C[C@@H](O)COc3ccc(C(F)(F)F)cc3)CC2)cc1CC(C)C` [KKRE10216, (R)-N-((1-(5-fluoro-2-methylphenyl)-5-isobutyl-1H-pyrazol-3-yl)methyl)-2-(4-(2-hydoxy-3-(4-(trifluoromethyl)phenoxy)propyl)piperazin-1-yl)acetamide] the same measures were 71.4 ± 10.8% and 77.4%.
In the case of `CC(C)Cc1cc(CNC(=O)CN2CCN(C[C@@H](O)COc3ccc(C(F)(F)F)cc3)CC2)nn1-c1ccc(F)cc1` [KKRE10217, (R)-N-((1-(4-fluorophenyl)-5-isobutyl-1H-pyrazol-3-yl)methyl)-2-(4-(2-hydroxy-3-(4-(trifluoromethyl)phenoxy)propyl)piperazin-1-yl)acetamide], the inhibition at 101 µM on TREK-1 channel was 50.1 ± 10.7%. The inhibition in experiment [1] was found to be 75.7%.
For `CC(C)Cc1cc(CNC(=O)CN2CCN(C[C@@H](O)COc3ccc(C(F)(F)F)cc3)CC2)nn1-c1cc(Cl)cc(Cl)c1` [KKRE10218, (R)-N-((1-(3,5-dichlorophenyl)-5-isobutyl-1H-pyrazol-3-yl)methyl)-2-(4-(2-hydroxy-3-(4-(trifluoromethyl)phenoxy)propyl)piperazin-1-yl)acetamide] the same measures were 76.1 ± 5.79% and 73.5%.
For `CC(C)Cc1cc(CNC(=O)CN2CCN(C[C@H](O)COc3ccc(C(F)(F)F)cc3)CC2)nn1-c1ccc(F)cc1` [KKRE10219, (S)-N-((1-(4-fluorophenyl)-5-isobutyl-1H-pyrazol-3-yl)methyl)-2-(4-(2-hydroxy-3-(4-(trifluoromethyl)phenoxy)propyl)piperazin-1-yl)acetamide], in that order: 57 ± 6.08% and 74.1%.
For `CC(C)Cc1cc(CNC(=O)CN2CCN(C[C@H](O)COc3ccc(C(F)(F)F)cc3)CC2)nn1-c1cc(Cl)cc(Cl)c1` [KKRE10220, (S)-N-((1-(3,5-dichlorophenyl)-5-isobutyl-1H-pyrazol-3-yl)methyl)-2-(4-(2-hydroxy-3-(4-(trifluoromethyl)phenoxy)propyl)piperazin-1-yl)acetamide], in that order: 41.4 ± 12.7% and 35.8%.
On to `Cc1ccc(F)cc1-n1nc(CNC(=O)CN2CCN(C[C@H](O)COc3ccc(C(F)(F)F)cc3)CC2)cc1CC(C)C` [KKRE10221, (S)-N-((1-(5-fluoro-2-methylphenyl)-5-isobutyl-1H-pyrazol-3-yl)methyl)-2-(4-(2-hydroxy-3-(4-(trifluoromethyl)phenoxy)propyl)piperazin-1-yl)acetamide], for which the inhibition at 101 µM on TREK-1 channel is 83.1 ± 4.99%. Moreover, the inhibition in experiment [1] was determined as 68.9%.
For `Cc1ccccc1-n1nc(CNC(=O)CN2CCN(C[C@H](O)COc3ccc(C(F)(F)F)cc3)CC2)cc1CC(C)C` [KKRE10222, (S)-2-(4-(2-Hydroxy-3-(4-(trifluoromethyl)phenoxy)propyl)piperazin-1-yl)-N-((5-isobutyl-1-o-tolyl-1H-pyrazol-3-yl)methyl)acetamide], in that order: 51.2 ± 12.5% and 79.2%.
For `CC(C)Cc1cc(CNC(=O)CN2CCN(C[C@@H](O)COc3ccc(F)cc3)CC2)nn1-c1cc(Cl)cc(Cl)c1` [KKRE10223, (R)-N-((1-(3,5-Dichlorophenyl)-5-isobutyl-1H-pyrazol-3-yl)methyl)-2-(4-(3-(4-fluorophenoxy)-2-hydroxypropyl)piperazin-1-yl)acetamide] the same measures were 87.6 ± 2.43% and 63.4%.
For `Cc1ccc(F)cc1-n1nc(CNC(=O)CN2CCN(C[C@@H](O)COc3ccc(F)cc3)CC2)cc1CC(C)C` [KKRE10224, (R)-N-((1-(5-Fluoro-2-methylphenyl)-5-isobutyl-1H-pyrazol-3-yl)methyl)-2-(4-(3-(4-fluorophenoxy)-2-hydroxypropyl)piperazin-1-yl)acetamide], in that order: 45.1 ± 3.6% and 77.8%.
`Cc1ccccc1-n1nc(CNC(=O)CN2CCN(C[C@@H](O)COc3ccc(F)cc3)CC2)cc1CC(C)C` [KKRE10225, (R)-2-(4-(3-(4-Fluorophenoxy)-2-hydroxypropyl)piperazin-1-yl)-N-((5-isobutyl-1-o-tolyl-1H-pyrazol-3-yl)methyl)acetamide]: the inhibition at 101 µM at TREK-1 channel is 13.1 ± 6.19%. Further, in experiment [1], the inhibition stood at 81.1%.
As to `CC(C)Cc1cc(CNC(=O)CN2CCN(C[C@@H](O)COc3ccc(F)cc3)CC2)nn1-c1ccc(F)cc1` [KKRE10226, (R)-2-(4-(3-(4-Fluorophenoxy)-2-hydroxypropyl)piperazin-1-yl)-N-((1-(4-fluorophenyl)-5-isobutyl-1H-pyrazol-3-yl)methyl)acetamide], on TREK-1 channel, the inhibition at 101 µM was 18.8 ± 7.78%. Moreover, the inhibition in experiment [1] was determined as 78.8%.
